In PubChem BioAssay (NCI):
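These data come from cells grown in 96-well plates and exposed to compound for 48 hours at five concentrations. TGI: total growth inhibition.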

Key:
Experiment in all cases: NCI tumour cell line growth inhibition, 48 h
[1] = tested on: SN12K1 renal
[2] = tested on: P388 leukemia
[3] = tested on: P388/ADR leukemia

## C=C1C(C)C2C(Cc3ccccc3)NC(=O)C23C(OC(C)=O)C=CC(C)(O)C(=O)C(C)C/C=C/C3C1O (stereo not drawn)
[1]
  TGI: 58.3 µM
[2]
  TGI: 51.7 µM
[3]
  TGI: 90.3 µM
